Test results from publication PMC11845649, “Unravelling physical and radiobiological effects of proton boron fusion reaction with anionic metallacarboranes ([o-COSAN]^-) in breast cancer cells” (EJNMMI Research, 2025).
Values belong to the substance of their own block, whether it stands above or below them.

What was measured:
U87 glioblastoma cells = tested on: U87 glioblastoma cells; design: method as in PMID 36373493; settings: protons at 675 keV, dose 9 Gy; cited from earlier work
[1] = tested on: MDA-MB-231 breast cancer cells; test: MTT cell viability / cytotoxic activity; assay type: cell-based; settings: MDA-MB-231, MTT, mean ± SD of two independent experiments
Protocol: MDA-MB-231 breast cancer cells were purchased from American Type Culture Collection (ATCC, HTB-26). Cells were cultured in DMEM medium supplemented with 10% fetal bovine serum (FBS) and incubated at 37 °C in a humidified 5% CO2 atmosphere. Na[o-COSAN] stock solutions at 1 mM were prepared in DMEM medium without supplements and kept at -20 °C. Cell viability was assessed using the MTT assay following a method similar to the one previously described. Briefly, MDA-MB-231 cells (0.8 − 5 × 10^4 cells/well) were seeded in 96-well plates and left to adhere. After 24 h, cells were incubated with increasing concentrations of Na[o-COSAN] from 1 µM to 1000 µM for 6 and 24 h. After incubation, the medium was removed, and each well was incubated with an MTT solution (0.5 mg/mL in medium) for 3 h at 37 °C. Then, the medium was discarded, and the formazan crystals were solubilized in 200 µL DMSO. Absorbance was measured at 570 nm using an Varioskan TM LUX microplate reader (Thermo Scientific, Waltham, MA, USA). The dose-response curve fit of the absorbance as a function of log10[concentration] was performed using GraphPad Prism software (version 9.5.1) to assess viability and IC50 (concentration at which half the cell population is expected to die) at 6 and 24 h. […]

MDA-MB-231 cells [2] = test: Cellular uptake by nuclear microscopy (STIM, PIXE, EBS), Co as signature; assay type: cell-based
Protocol: MDA-MB-231 cells (10^4-10^5 cells) were seeded on 100 nm thick silicon nitride (Si3N4) membranes (Silson Ltd., UK), allowed to adhere, and incubated for 24 h in medium containing Na[o-COSAN] at 50 µM. The culture medium was removed and the monolayer of cells on the membranes was washed with cold PBS, immediately frozen at -80 °C, transferred to a cryostat at -25 °C and allowed to dry overnight for subsequent analysis of [o-COSAN]^− uptake. […] Briefly, a 2.0 MeV focused proton beam of 3 × 4 µm^2 was raster scanned across the target cell on the silicon nitride window, simultaneously delivering images of density by STIM (Scanning Transmission Ion Microscopy), elemental distributions by PIXE (Particle Induced X-ray Emission) and matrix constituents by EBS (Elastic Backscattering Spectroscopy). Spectra recorded and/or extracted from maps in selected regions of the cell allowed Co concentrations to be determined in major cell compartments, such as the cytoplasm and nucleus. At least three cells treated with Na[o-COSAN] at a concentration of 50 µM were analyzed, and Co concentrations were measured using a minimum of five spectra acquired from both the nucleus and cytoplasm regions. The average concentrations for each of these regions were calculated based on the individual spectra. Data acquisition, spectra processing and concentration calculation were performed using the OMDAQ-3 program (Oxford Microbeams Ltd., UK) (http://www.microbeams.co.uk/ Accessed 12-6-2024). Elemental concentrations are expressed as µg/g dry weight.
The uptake of [o-COSAN]^− in single MDA-MB-231 cells was analysed using a combination of nuclear microscopy techniques: STIM, PIXE, and EBS. These techniques allow correlative imaging and quantification of elemental distributions. […] These morphological details were essential for correlating with the elemental distributions obtained from PIXE and assessing localization. […] Therefore, considering the stoichiometry of the carborane cluster [C2B9H11]^−2.in the [o-COSAN]^− molecule, the boron-11 (^11B) content can be estimated. […] This is important information provided by nuclear microscopy. It will be needed for future advanced dosimetry studies, including PBFR.

[3] = tested on: MDA-MB-231 tumor-bearing mice; test: Biodistribution, boron by ICP-OES in MDA-MB-231 xenograft model; assay type: in vivo, mice (Balb/cSlc-nu/nu); settings: 7.5 mgB/kg intravenously
Protocol: MDA-MB-231 tumor-bearing mice (Balb/cSlc-nu/nu, female, 5–6 weeks old, 14–20 g, Sankyo Labo Service Co., Ltd., Japan) were prepared by injecting subcutaneously (s.c.) a suspension of MDA-MB-231 cells (8.0 × 10^5 cells/mouse) directly into the right thigh. The mice were kept on a regular chow diet and water and maintained under 12 h light/dark cycle in an ambient atmosphere. When the tumor diameter became 5 to 7 mm, the mice were injected via the tail vein with a 200 µL PBS solution of Na[o-COSAN] (7.5 mgB/kg). At 1 h after injection, the mice were lightly anesthetized, and blood samples were collected by cardiac puncture. The mice were then sacrificed by cervical dislocation and dissected. Heart, liver, lung, kidney, spleen, muscle, brain and tumor were excised, washed with 0.9% NaCl solution, and weighed. The excised organs were digested with 1 mL of HNO3 at 90 °C for 1 h, and then the digested samples were diluted with distilled water. After filtering through a hydrophobic filter, boron concentration was measured by an inductively coupled plasma optical emission spectroscopy (ICP-OES, iCAP 7400 Duo, Thermo Fisher Scientific Inc., USA). All animal experiments were conducted in accordance with the Guide for the Care and Use of Laboratory Animals approved by the Animal Use Review Board and Ethical Committee of Tokyo Institute of Technology (Permission number: D2021007).
The biodistribution studies provide important preclinical information regarding the identity of the potential target organs and tissues. Na[o-COSAN] (7.5 mgB/kg) was administrated intravenously to MDA-MB-231 breast cancer xenograft model mice, and boron uptake in the target organs was evaluated at 1 and 4 h post-injection.

MDA-MB-231 cells [4] = test: Clonogenic cell survival after proton irradiation (PBFR, 675 keV); assay type: cell-based; settings: for surviving fraction vs control irradiated cells: 24 h incubation, 8 Gy protons, p < 0.05
Protocol: (§1) Proton irradiation was performed in air using the external microbeam facility at the Van de Graaff accelerator of the CTN/IST. Briefly, a focused 2.0 MeV proton beam of ∼70 × 70 µm^2 was used and rastered scanned over a cell monolayer placed in a cell plate, positioned prependicular to the proton beam path. The raster scan duration and the irradiation time of 10 s ensured irradiation homogeneity. The maximum achievable scan area is in the range of 0.08–0.13 cm^2 (corresponding to 40% of the total area of one well, 0.32 cm^2, in a 96-well plate). A proton beam current in the pA range was used, corresponding to a proton intensity of 2–6 × 10^6 protons/s. Prior to irradiation, part of the culture medium was removed, as described elsewhere. The proton beam energy was tuned to 675 keV (main resonance energy of the proton-boron nuclear reaction) within the cell layer by controlling the air path length and using Mylar^R foils as attenuators. The details of the irradiation geometry are described above and illustrated in Fig. 2.
MDA-MB-231 cells were seeded in each well of a 6 well plate and incubated for 24 h. Cells were incubated with 50 and 100 µM of Na[o-COSAN], for 24 h at 37 °C, and then irradiated with protons, as described in 2.3.1. After irradiation, fresh medium was added and cells were incubated for 7 days in the same conditions. After 7 days of incubation, the medium was aspirated and cells were fixed and stained with Giemsa’s azur eosin methylene blue solution diluted 5% v/v in buffer solution. Finally, colonies were manually counted. Moreover, a CellProfiler pipeline was used to check the size of the different colonies observed in order to assess whether proton irradiation interfered with the capacity of replication of MDA-MB-231 cells.
The efficiency of [o-COSAN]^- was evaluated after irradiation with 8 Gy of protons in MDA-MB-231 cells. The irradiation with protons was carried out assuming that the proton-boron nuclear reaction resonance energy of 675 keV was reached within the cell monolayer.

MDA-MB-231 cells [5] = test: γ-H2AX foci quantification after proton irradiation; assay type: cell-based
Protocol: as §1
MDA-MB-231 cells were seeded at a density of 10,000 cells per well in an eight-well chamber slide and allowed to attach overnight. Cells were incubated with 50 and 100 µM of Na[o-COSAN], for 24 h at 37 °C, and then irradiated with protons, as described in 2.4. MDA-MB-231 cells were washed three times with PBS and fixed with 4% formaldehyde in PBS for 15 min. After washing with PBS, cells were permeabilized with Triton X-100 (0.5%) at room temperature for 5 min followed by two washing steps with 1% BSA in PBS. Then, cells were incubated with an anti-γ-H2AX primary antibody (mouse anti-γ-H2AX (ser139), Stressgen) at 2 µg/mL for 1 h. […] Cells were analyzed at under ×64 magnification. Several high-quality 2D images were randomly collected in each slide and analyzed using a modified Speckle Count pipeline from the freeware CellProfiler. At least 200 nuclei were analyzed per experiment per dose. […]
The efficiency of [o-COSAN]^- was evaluated after irradiation with 8 Gy of protons in MDA-MB-231 cells. […]

[6] = design: method as in doi:10.1021/cr00010a005, PMID 34944987, PMID 34576098; settings: cited from earlier work

Substance: ferrabis(dicarbollide) [Na[o-FESAN]]
cell viability and survival after proton irradiation (U87 glioblastoma cells): significant loss of cell viability and survival

tumor boron uptake ([3]; 1 and 4 h post-injection): high and maintained after 4 h | boron accumulation in liver and lungs ([3]; 1 h post-injection): significant accumulation of boron | boron accumulation in kidney and spleen ([3]; 1 h post-injection, relative to liver and lungs): less | boron in target organs after 4 h ([3]; 4 h post-injection): considerable clearance of boron | γ-H2AX foci induction without irradiation (MDA-MB-231 cells [5]; non-irradiated cells): does not induce new γ-H2AX foci
Substance: sodium salt of cobaltabisdicarbollide [Na[o-COSAN]]
IC50 ([1]; 6 h incubation): 245 ± 94 µM | IC50 ([1]; 24 h incubation): 137 µM | Co concentration, nucleus compared to cytoplasm (MDA-MB-231 cells [2]; 24 h, 50 µM, Fig. 3C): significantly higher concentrations of Co in the nucleus compared to the cytoplasm | 11B content in the nucleus (MDA-MB-231 cells [2]; estimated from Co concentration and cluster stoichiometry, 24 h, 50 µM): 425 µg/g | 11B atoms in the nuclear volume of a single cell (MDA-MB-231 cells [2]; estimated from Co concentration, 24 h, 50 µM): approximately 2.3 × 10^9 atoms | average Co concentration in the nucleus (MDA-MB-231 cells [2]; single MDA-MB-231 cells, 24 h incubation with 50 µM, PIXE, dry weight): 153 µg/g | surviving fraction vs control irradiated cells (MDA-MB-231 cells [4]; 50 µM): significant decrease | surviving fraction vs control irradiated cells (MDA-MB-231 cells [4]; 100 µM): significant decrease | decrease of average colony size vs cells irradiated with protons in the absence of compound (MDA-MB-231 cells [4]; 100 µM, irradiated 8 Gy protons, p < 0.001): 40% | decrease of average colony size vs non-irradiated counterparts (MDA-MB-231 cells [4]; 100 µM, irradiated 8 Gy protons, p < 0.01): 30% | effect on surviving fraction of treated non-irradiated cells (MDA-MB-231 cells [4]; non-irradiated, vs control conditions): minor cytostatic effects | increase in average number of γ-H2AX foci (MDA-MB-231 cells [5]; irradiated cells (8 Gy protons) incubated with 50 µM): 55% | increase in average number of γ-H2AX foci (MDA-MB-231 cells [5]; irradiated cells (8 Gy protons) incubated with 100 µM): 27% | stability [6]: remarkably stable | water solubility [6]: water-soluble
